Consider 16 compounds from patent US20230107642A1 (Erasca, Inc., priority 2020, published 2023).

The target in this assay is T1, Cys12 of the KRAS 4B G12C protein (Homo sapiens, UniProt P01116, G12C).
T1 construct: This protein contained 188 amino acids in total, including an N-terminal 6-Histidine tag; made in house; host or cells: E. coli BL21
The assay can be described thus: In vitro covalent adduct formation (CAF) assay, LC-MS intact mass. Format: binding. The note with it: 10 uM compound, 60 min incubation. How it is done: This Example provides a protocol for assessing covalent adduct formation (CAF) between the compounds of the present application and KRAS.
In vitro covalent adduct formation assay: Covalent adduct formation (CAF) reactions between Cys12 of the KRAS 4B G12C protein and some of the compounds of Tables 1 to 4 were measured in vitro using liquid chromatography-mass spectrometry (LC-MS).
Recombinant Human KRAS 4B protein containing the G12C mutation was used in compound screening experiments. This protein contained 188 amino acids in total, including an N-terminal 6-Histidine tag, followed by a Tobacco Etch Virus (TEV) tag, followed by residues 1-169 of the native KRAS 4B sequence. The exact mass of the protein was 21,310 Da as determined by mass spectrometry. The full amino acid sequence is shown below: […]
The recombinant protein was expressed in E. coli BL21 cells and purified using affinity chromatography via a Ni-NTA column. Protein stocks were nucleotide-exchanged to >95% GDP, concentrated to 4 mg/mL, and stored at −80° C. in storage buffer (50 mM HEPES pH 7.4, 50 mM NaCl, 5 mM MgCl2, 1 mM DTT). Pure KRAS 4B G12C protein was diluted to a concentration of 5 μM in Tris Buffered Saline, pH 7.4. The compounds were dissolved in DMSO and added to the diluted protein to make a 10 μM concentration. The total DMSO concentration in the reaction was 4%. The reaction was mixed by pipetting and incubated at 22° C. for one hour. Aliquots of the reaction were taken over time and diluted 2:1 in 0.1% formic acid. The intact mass of the protein samples was measured by LC-MS using a QExactive+ mass spectrometer (Thermo Scientific). An amount of 500 ng total protein was injected onto a C8 reverse phase column, eluted with a seven-minute gradient of 30%-90% acetonitrile/0.1% formic acid, and analyzed for intact mass by the mass spectrometer. Adducts identified were confirmed to be within 1 Dalton of the expected mass, and the relative ratios of free:adduct protein were used to quantify the percentage of protein bound by the compound. CAF reactions were run in duplicate, with a typical variability of ±5%.
For `C=CC(=O)N1C[C@H](C)N(c2nc(=O)n3c4c(c(-c5cccc6cnn(C)c56)c(C(F)(F)F)cc24)SC[C@@H]3COC)C[C@H]1C` (atropisomer, axis not shown) [Example 1101, (3S,10R)-7-((2S,5R)-4-acryloyl-2,5-dimethylpiperazin-1-yl)-3-(methoxymethyl)-10-(1-methyl-1H-indazol-7-yl)-9-(trifluoromethyl)-2,3-dihydro-5H-[1,4]thiazino[2,3,4-ij]quinazolin-5-one], the “% CAF 10 uM @ 60 min” value was determined as 0%.

With `C=CC(=O)N1C[C@H](C)N(c2nc(=O)n3c4c(c(-c5cccc6cnn(C)c56)c(C(F)(F)F)cc24)SC[C@@H]3COC)C[C@H]1C` (atropisomer, axis not shown) [Example 1102, (3S,10S)-7-((2S,5R)-4-acryloyl-2,5-dimethylpiperazin-1-yl)-3-(methoxymethyl)-10-(1-methyl-1H-indazol-7-yl)-9-(trifluoromethyl)-2,3-dihydro-5H-[1,4]thiazino[2,3,4-ij]quinazolin-5-one], the “% CAF 10 uM @ 60 min” value is listed as 94.5%. Take `C=CC(=O)N1CCN(c2nc(=O)n3c4c(c(-c5cc(Cl)c(F)cc5F)c(C(F)(F)F)cc24)SC[C@@H]3COC)CC1` (atropisomer, axis not shown) [Example 1107, (3S,10R)-7-(4-acryloylpiperazin-1-yl)-10-(5-chloro-2,4-difluorophenyl)-3-(methoxymethyl)-9-(trifluoromethyl)-2,3-dihydro-5H-[1,4]thiazino[2,3,4-ij]quinazolin-5-one]: the “% CAF 10 uM @ 60 min” value is given as 97%. Regarding `C=CC(=O)N1CCN(c2nc(=O)n3c4c(c(-c5cc(Cl)c(F)cc5F)c(C(F)(F)F)cc24)SC[C@@H]3COC)CC1` (atropisomer, axis not shown) [Example 1108, (3S,10S)-7-(4-acryloylpiperazin-1-yl)-10-(5-chloro-2,4-difluorophenyl)-3-(methoxymethyl)-9-(trifluoromethyl)-2,3-dihydro-5H-[1,4]thiazino[2,3,4-ij]quinazolin-5-one], the “% CAF 10 uM @ 60 min” value was 85%.

Turning to `C=CC(=O)N1C[C@H](C)N(c2nc(=O)n3c4c(c(-c5ccc(F)cc5F)c(C(F)(F)F)cc24)SCC2(COC2)C3)C[C@H]1C` (atropisomer, axis not shown) [Example 1109, (S)-8′-((2S,5R)-4-acryloyl-2,5-dimethylpiperazin-1-yl)-11′-(2,4-difluorophenyl)-10′-(trifluoromethyl)-2′H,4′H,6′H-spiro[oxetane-3,3′-[1,4]thiazepino [2,3,4-ij]quinazolin]-6′-one], the “% CAF 10 uM @ 60 min” value is reported as 93%. `C=CC(=O)N1C[C@H](C)N(c2nc(=O)n3c4c(c(-c5ccc(F)cc5F)c(C(F)(F)F)cc24)SCC2(COC2)C3)C[C@H]1C` (atropisomer, axis not shown) [Example 1110, (R)-8′-((2S,5R)-4-acryloyl-2,5-dimethylpiperazin-1-yl)-11′-(2,4-difluorophenyl)-10′-(trifluoromethyl)-2′H,4′H,6′H-spiro[oxetane-3,3′-[1,4]thiazepino [2,3,4-ij]quinazolin]-6′-one]: the “% CAF 10 uM @ 60 min” value was 96.1%. The same measure for `C=CC(=O)N1[C@H](C)CN(c2nc(=O)n3c4c(c(-c5cc(Cl)c(F)cc5F)c(C(F)(F)F)cc24)SC[C@H](N2CCOCC2)C3)C[C@@H]1C` (atropisomer, axis not shown) [Example 1114, (3R,11R)-8-((3S,5R)-4-acryloyl-3,5-dimethylpiperazin-1-yl)-11-(5-chloro-2,4-difluorophenyl)-3-morpholino-10-(trifluoromethyl)-3,4-dihydro-2H,6H-[1,4]thiazepino [2,3,4-ij]quinazolin-6-one]: 71.7%; for `C=CC(=O)N1[C@H](C)CN(c2nc(=O)n3c4c(c(-c5cc(Cl)c(F)cc5F)c(C(F)(F)F)cc24)SC[C@H](N2CCOCC2)C3)C[C@@H]1C` (atropisomer, axis not shown) [Example 1115, (3R,11S)-8-((3S,5R)-4-acryloyl-3,5-dimethylpiperazin-1-yl)-11-(5-chloro-2,4-difluorophenyl)-3-morpholino-10-(trifluoromethyl)-3,4-dihydro-2H,6H-[1,4]thiazepino [2,3,4-ij]quinazolin-6-one]: 42.5%; for `C=CC(=O)N1CCN(c2nc(=O)n3c4c(c(-c5cccc6cnn(C)c56)c(C(F)(F)F)cc24)SC[C@@H]3COC)CC1` (atropisomer, axis not shown) [Example 1119, (3S,10S)-7-(4-acryloylpiperazin-1-yl)-3-(methoxymethyl)-10-(1-methyl-1H-indazol-7-yl)-9-(trifluoromethyl)-2,3-dihydro-5H-[1,4]thiazino[2,3,4-ij]quinazolin-5-one]: 99.4%.

Consider `C=CC(=O)N1[C@H](C)CN(c2nc(=O)n3c4c(c(-c5cc(Cl)c(F)cc5F)c(C(F)(F)F)cc24)SCC2(COC2)C3)C[C@@H]1C` (atropisomer, axis not shown) [Example 1124, (R)-8′-((3S,5R)-4-acryloyl-3,5-dimethylpiperazin-1-yl)-11′-(5-chloro-2,4-difluorophenyl)-10′-(trifluoromethyl)-2′H,4′H,6′H-spiro[oxetane-3,3′-[1,4]thiazepino [2,3,4-ij]quinazolin]-6′-one], for which the “% CAF 10 uM @ 60 min” value is on record as 96.2%. For the compound `C=CC(=O)N1[C@H](C)CN(c2nc(=O)n3c4c(c(-c5cc(Cl)c(F)cc5F)c(C(F)(F)F)cc24)SCC2(COC2)C3)C[C@@H]1C` (atropisomer, axis not shown) [Example 1125, (S)-8′-((3S,5R)-4-acryloyl-3,5-dimethylpiperazin-1-yl)-11′-(5-chloro-2,4-difluorophenyl)-10′-(trifluoromethyl)-2′H,4′H,6′H-spiro[oxetane-3,3′-[1,4]thiazepino [2,3,4-ij]quinazolin]-6′-one], the “% CAF 10 uM @ 60 min” value turned out to be 92.1%.

Take `C=CC(=O)N1[C@H](C)CN(c2nc(=O)n3c4c(c(-c5ccc(F)c6cnn(C)c56)c(C(F)(F)F)cc24)SC[C@@H]3COC)C[C@@H]1C` (atropisomer, axis not shown) [Example 1126, (3S,10S)-7-((3S,5R)-4-acryloyl-3,5-dimethylpiperazin-1-yl)-10-(4-fluoro-1-methyl-1H-indazol-7-yl)-3-(methoxymethyl)-9-(trifluoromethyl)-2,3-dihydro-5H-[1,4]thiazino [2,3,4-ij]quinazolin-5-one]: the “% CAF 10 uM @ 60 min” value came out at 46.8%. The same measure for `C=CC(=O)N1CCN(c2nc(=O)n3c4c(c(-c5ccc(F)cc5F)c(C(F)(F)F)cc24)SCC2(COC2)C3)CC1` (atropisomer, axis not shown) [Example 1127, (R)-8′-(4-acryloylpiperazin-1-yl)-11′-(2,4-difluorophenyl)-10′-(trifluoromethyl)-2′H,4′H,6′H-spiro[oxetane-3,3′-[1,4]thiazepino [2,3,4-ij]quinazolin]-6′-one]: 95.3%.

Turning to `C=CC(=O)N1CCN(c2nc(=O)n3c4c(c(-c5ccc(F)cc5F)c(C(F)(F)F)cc24)SCC2(COC2)C3)CC1` (atropisomer, axis not shown) [Example 1128, (S)-8′-(4-acryloylpiperazin-1-yl)-11′-(2,4-difluorophenyl)-10′-(trifluoromethyl)-2′H,4′H,6′H-spiro[oxetane-3,3′-[1,4]thiazepino [2,3,4-ij]quinazolin]-6′-one], the “% CAF 10 uM @ 60 min” value is 65.8%. The same measure for `C=CC(=O)N1[C@H](C)CN(c2nc(=O)n3c4c(c(-c5cccc6cnn(C)c56)c(C(F)(F)F)cc24)SC[C@@H]3COC)C[C@@H]1C` (atropisomer, axis not shown) [Example 1130, (3S,10S)-7-((3S,5R)-4-acryloyl-3,5-dimethylpiperazin-1-yl)-3-(methoxymethyl)-10-(1-methyl-1H-indazol-7-yl)-9-(trifluoromethyl)-2,3-dihydro-5H-[1,4]thiazino [2,3,4-ij]quinazolin-5-one]: 95.6%; for `C=CC(=O)N1[C@H](C)CN(c2nc(=O)n3c4c(c(-c5cccc6cnn(C)c56)c(C(F)(F)F)cc24)SC[C@@H]3COC)C[C@@H]1C` (atropisomer, axis not shown) [Example 1131, (3S,10R)-7-((3S,5R)-4-acryloyl-3,5-dimethylpiperazin-1-yl)-3-(methoxymethyl)-10-(1-methyl-1H-indazol-7-yl)-9-(trifluoromethyl)-2,3-dihydro-5H-[1,4]thiazino [2,3,4-ij]quinazolin-5-one]: 18.2%.
